Test results as given in patent publication US20090047365A1, “Novel Concomitant Use of Sulfonamide Compound with Anti-Cancer Agent” (Eisai R & D Management Co., Ltd., priority 2005, published 2009).

Assays:
[1] = system: human colon cancer cell line Colo320DM; assay: subcutaneous transplant model of human colon cancer cell line (Colo320DM), E7820 and Oxaliplatin; format: in vivo; conditions: Colo320DM nude mouse; E7820 50 mg/kg twice a day, two weeks, oral; Oxaliplatin 10 mg/kg once in four days x3, intravenous; control 11.99 ± 1.35
[2] = system: DNA-topoisomerase II mRNA; assay: quantification of DNA-topoisomerase II mRNA by RT-PCR; format: cell-based, human; conditions: HUVEC, 1 μM, six hours; untreated group 4.4 μg/ml
Procedure: 2×10^6 of human umbilical vein endothelial cells were seeded in a 25 cm^2 cell culture bottle and cultured in a CO2 incubator at 37° C. using a EGM-2 medium (Sanko Junyaku) overnight. On the following day, E7820 was added to give 1 μM. Six hours later, RNA was prepared from the cells. Specifically, the medium was removed from the cells. The cells were added with and dissolved in 3 ml of ISOGEN (Wako Pure Chemical Industries), added with an equal volume of CHCl3 and agitated. Then, the water phase was extracted. Half the amount of the water phase of isopropanol was added, left to stand for 5 minutes and centrifuged to collect the precipitate. The precipitate was washed with 70% ethanol, added with and dissolved in sterile water and absorbance at 260 nm was determined with a spectrophotometer to quantify the RNA amount.
Subsequently, TaqMan Gold RT-PCR kit (Applied Biosystems) was used to perform RT-PCR reaction. Specifically, 0.1 μg of RNA was added to 50 μl of the reaction solution, and subjected to reactions at 25° C. for 10 minutes, 48° C. for 30 minutes and 95° C. for 5 minutes to prepare cDNA. Then, a primer for determining DNA-topoisomerase II mRNA (ABI Taqman probe Hs00172214 ml) was used for PCR reaction and then ABI7700 (Applied Biosystems) was used for quantifying RNA amount.

[3] = system: HCT116 cells; assay: DNA microarray analysis (Example 8), correlation coefficients and hierarchical cluster analysis; format: cell-based, human; conditions: 24 hours treatment at twice the 50% growth inhibitory concentration, similarity among the compounds named together
Procedure: HCT116 cells were cultured in an RPMI-1640 medium supplemented with 10% fetal bovine serum, 100 units/ml penicillin and 100 μg/ml streptomycin. The following cultivation and compound treatment were carried out in an incubator at 5% CO2 and 37° C. HCT116 cells were seeded in 10 cm-diameter cell culture dishes at 2.0×10^6 cells/dish, cultured for 24 hours and subjected to the following compound treatment.
In this example, changes in the gene expression of HCT116 cells upon treatments with 12 compounds, i.e., E7820 (0.16 μM), E7070 (0.26 μM), LY186641 (59 μM), LY295501 (24 μM), LY-573636 (9.6 μM), CQS (4.0 μM), MST16 (100 μM), etoposide (3.6 μM), ethoxzolamide (410 μM), capsaicin (280 μM), trichostatin A (0.16 μM) and kenpaullone (7.1 μM) were examined.
The concentration of each compound used for the treatment was set to twice the 50% growth inhibitory concentration of each compound to the HCT116 cells (based on three days of antiproliferatrive activity using MTT). The cells were collected 24 hours after the treatment at the concentration indicated in parentheses following each compound name above. Similarly, cells cultured for 24 hours without the addition of any compound were also collected.
Total RNA extraction from the collected cells was performed using TRIZOL reagent (Invitrogen) according to the attached instruction.
Gene expression analysis using a DNA microarray was carried out in the same manner as “(2) Analysis of gene expression using DNA microarray” in Example 7.
This example was conducted for each sample in duplicate (for the convenience of the experiment, samples were given branch numbers like control-1, control-2, E7070-1, E7070-2 and so on for distinction). Then, GeneChip (Affymetrix) system (Human Focus array) was used for analyzing changes in the gene expression induced by each compound.
Twenty-six “.cel” files obtained in this example (13 samples (a control+12 compounds)×2) were subjected to RMA method (robust multi-array average method (Biostatistics (2003), 4, 249-264)) for normal distribution at probe level, and then the logarithm value of the signal intensity at gene level was calculated. Next, the logarithm value of the signal intensity of the untreated group (control-1) was subtracted from the logarithm value of the signal intensity of the compound-treated group for each gene to obtain the logarithm value of the signal ratio of the compound-treated group to control-1. Then, cosine correlation coefficients were calculated as correlation coefficients between the experiments (FIG. 5). Based on these correlation coefficients, hierarchical cluster analysis was performed according to UPGMA method (Unweighted Pair Group Method with Arithmetic mean method) (FIG. 6). Control-2 was also subjected to similar calculation (FIGS. 7 and 8). The softwares used were R 2.0.1 (http://www.r-project.org/) and affy package 1.5.8 (http://www.bioconductor.org).

[4] = system: human colon cancer cell line Colo320DM; assay: subcutaneous transplant model of human colon cancer cell line (Colo320DM), E7820 and CPT-11; conditions: Colo320DM nude mouse; E7820 50 mg/kg twice a day, two weeks, oral; CPT-11 100 mg/kg once in four days x3, intravenous; control 11.99 ± 1.35
Procedure: Human colon cancer cell line Colo320DM (purchased from Dainippon Pharmaceutical) was cultured in RPMI1640 (containing 10% FBS) in a 5% carbon dioxide incubator at 37° C. to about 80% confluence, and the cells were collected with trypsin-EDTA. Using a phosphate buffer containing 50% matrigel, 7.5×10^7 cells/mL suspension was prepared, and 0.1 mL each of the resulting cell suspension was subcutaneously transplanted to a nude mouse at the side of its body. […] The major and minor axes of tumors were measured with Digimatic caliper (Mitsutoyo), and tumor volumes and relative tumor volumes were calculated according to the following formulae.
Tumor Volume TV=Major axis of tumor(mm)×(minor axis of tumor)^2(mm^2)/2
(§1) Relative Tumor Volume RTV=Tumor volume on measurement day/Tumor volume on the first administration day

[5] = system: human pancreas cancer cell line KP-1; assay: subcutaneous transplant model of human pancreas cancer cell line (KP-1), E7820 and Gemcitabine; conditions: KP-1 nude mouse; E7820 50 mg/kg twice a day, three weeks, oral; Gemcitabine 200 mg/kg once in three days x4, intravenous; control 14.8 ± 2.28
Procedure: Human pancreas cancer cell line KP-1 (obtained from the National Kyushu Cancer Center) was cultured in RPMI1640 (containing 10% FBS) in a 5% carbon dioxide incubator at 37° C. to about 80% confluence, and the cells were collected with trypsin-EDTA. Using a phosphate buffer, 1×10^8 cells/mL suspension was prepared, and 0.11 mL each of the resulting cell suspension was subcutaneously transplanted to a nude mouse at the side of its body. […] The major and minor axes of tumors were measured with Digimatic caliper (Mitsutoyo), and tumor volumes and relative tumor volumes were calculated according to the following formulae.
Tumor Volume TV=Major axis of tumor(mm)×(Minor axis of tumor)^2(mm^2)/2
as §1

Structure (SMILES): Cc1ccc(NS(=O)(=O)c2cccc(C#N)c2)c2[nH]cc(C#N)c12 [E7820, N-(3-cyano-4-methyl-1H-indole-7-yl)-3-cyanobenzenesulfonamide]
- Relative tumor volume on Day 15 Average ± standard deviation [1]: 7.05 ± 1.15
- amount of DNA-topoisomerase II mRNA [2]: 1.6 µg/mL
- changes in gene expression (correlation coefficients, hierarchical cluster analysis) [3]: very similar genetic alterations
- Relative tumor volume on Day 15 Average ± standard deviation [4]: 7.05 ± 1.15
- Relative tumor volume on Day 22 Average ± standard deviation [5]: 8.81 ± 2.57
